Results on one compound are retold here after ChEMBL document CHEMBL1125655 (J Med Chem, 1991).

A word on the pKa: it is the negative logarithm of the acid dissociation constant.

The series can be described thus: pKa value of the compound. The class given is physicochemical.

Regarding `CN1CC[C@]23c4c5ccc(O)c4O[C@H]2[C@@H](O[C@@H]2O[C@H](C(=O)O)[C@@H](O)[C@H](O)[C@H]2O)C=C[C@H]3[C@H]1C5` (stereo in doubt; form 1) [MORPHINE GLUCURONIDE], the pKa stood at 3.23.
